Counter-ions that a name gives are not always drawn.

What all share (type): in vivo
One series relates to Plamopara viticola. The series is described as follows: Grapevine leaf disc test: disease suppression. Conditions: alone, 7 days at 21°C. The method, then:
Leaf discs of grapevine (cv. Cabernet Sauvignon) 23mm in diameter, were supported on water agar in petri dishes, and sprayed with various aqueous test preparations. After the spray had dried, the discs were inoculated with Plamopara viticola. The dishes were closed and incubated for 7 days at 21°C. At the end of this period, the percentage area of each disc covered with sporulating downy mildew was estimated, and compared with that on inoculated, untreated control discs.
In this Table, the theorectical degree of disease suppression, assuming that the two fungicides act independently (i.e. additively) is calculated using the formula: [formula] where x and y are the activities of the two components used separately. If the actual degree of disease suppression (as measured in the test) is greater than the calculated value, then the two fungicides have interacted synergistically.

The subject of another series is Plasmopara viticola. The series is described as follows: Field spray test on adult fruit-bearing grapevines: disease level. Conditions: percentage of disease level on control vines. The method, then:
(§1) The fungicidal and phytotoxic effects of the sodium salt of N-hydroxy-N-formylalanine in admixture with N-(trichlormethyl- thio)phthalimide were compared to those of the N-hydroxy-N-formylalanine salt alone using the following procedure. The test solutions were sprayed onto adult, fruit-bearing grapevines (cv Sauvignon) at 18 day intervals during June, July and August. Four replicate plots were treated. Controls were left untreated.
(§2) The test solutions contained the active ingredient(s), distilled water and 100ppm of Tween 20 surfactant (Trade mark).
Seven days after the first spray application and 13 days after the third spray application the vines were innoculated with a spore suspension containing Plasmopara viticola.
(§3) Assessments of the disease level and phytotoxicity were made 19 days after the 1st treatment, and then after a further 4 weeks (11 days after the 3rd treatment) .
The extent of disease control in the test is expressed as a percentage of the disease level occuring on the control vines.

For series [1], the system named is grapevines (cv Sauvignon). The series can be described thus: Field spray test on adult fruit-bearing grapevines: phytotoxicity rating. Conditions: mean rating 0-5. On the procedure: as §1, §2, §3
Phytotoxicity is expressed as a mean rating compared with the control according to the criteria, • 0 = absolutely no phytotoxicity • 1 = doubtful occurence of phytotoxicity • 2 = distinct, but very slight phytotoxicity • 3,4 = slight to moderate phytotoxicity • 5 = phytotoxicity of an unacceptable degree.

Setting [2] is: 250 ppm sodium salt alone, 11 days after 3rd application.
[3] abbreviates: 250 ppm sodium salt alone, 19 days after 1st application.
Where [4] appears, read: 500 ppm sodium salt alone, 11 days after 3rd application.
Setting [5] is: 500 ppm sodium salt alone, 19 days after 1st application.

For `O=C1c2ccccc2C(=O)N1SC(Cl)(Cl)Cl` [N-(trichloromethylthio) phthalimide, N-(trichloromethylthio)phthalimide, reference compound], the “Disease Suppression (% of control) Actual” value in the series with Plamopara viticola (1 ppm in spray) is listed as -16.2 % of control; with Plamopara viticola (5 ppm in spray), -2.7 % of control; with Plamopara viticola (10 ppm in spray) it was 82.4 % of control.
In the case of `CC(C(=O)O)N(O)C=O` (centres unmarked) [sodium salt of N-hydroxy-N-formylalanine], the DISEASE is 26.8% in the series on Plasmopara viticola (setting [2]), 34.7% in the series on Plasmopara viticola (setting [3]), 14.4% in the series on Plasmopara viticola (setting [4]) and 17.6% in the series with Plasmopara viticola (setting [5]). The PHYTOTOXICITY is listed as 0.8 in series [1] (setting [2]), 0.5 in series [1] (setting [3]), 1.5 in series [1] (setting [4]) and 2.0 in series [1] (setting [5]). The “Disease Suppression (% of control) Actual” value with Plamopara viticola (7.5 ppm in spray) is on record as -8.1 % of control; in the series with Plamopara viticola (15.0 ppm in spray) it was -2.7 % of control; with Plamopara viticola (30.0 ppm in spray), 37.8 % of control.
